# Reference: patent US9206156B2, “Substituted indole derivatives” (GRÜNENTHAL GMBH, priority 2008, dated 2015)
# Tests used:
# [1] = molecular target: T1, human μ-opiate receptor (Homo sapiens, UniProt P35372); assay: μ-opiate receptor binding assay with [3H] naloxone (WGA-SPA beads); conditions: 1 μmol/l test substance; 1 nmol/l [3H] naloxone; CHO-K1 cell membranes expressing human μ-opiate receptor; 1 µM
# T1 construct: purchased NEN, Zaventem, Belgium RB-HOM; host or cells: CHO-K1 cells (membrane preparation)
# T1 sequence (P35372 whole entry): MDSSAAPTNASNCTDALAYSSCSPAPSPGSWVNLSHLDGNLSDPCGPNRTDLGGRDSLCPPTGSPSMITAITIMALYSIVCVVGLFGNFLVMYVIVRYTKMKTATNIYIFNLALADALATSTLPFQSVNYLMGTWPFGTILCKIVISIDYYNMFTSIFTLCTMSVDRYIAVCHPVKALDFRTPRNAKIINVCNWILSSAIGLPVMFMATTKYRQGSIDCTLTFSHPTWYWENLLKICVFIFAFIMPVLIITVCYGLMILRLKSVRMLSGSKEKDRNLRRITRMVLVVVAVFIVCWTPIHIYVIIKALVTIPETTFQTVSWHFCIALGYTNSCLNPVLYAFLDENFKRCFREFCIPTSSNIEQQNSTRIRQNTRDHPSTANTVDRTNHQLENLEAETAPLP
# In short: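 Scintillation proximity readout: [3H]naloxone (1 nmol/l) displacement measured after 90 min, room temperature, on human μ-receptor CHO-K1 membranes in Tris-HCl/azide/BSA buffer; 25 μmol/l naloxone defined non-specific binding. Values are % specific-binding inhibition at 1 μmol/l, or Ki from IC50 (Cheng-Prusoff).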
# [2] = molecular target: T2, ORL1 receptor (Homo sapiens, UniProt P41146); assay: ORL1 receptor binding assay with 3H-nociceptin/orphanin FQ (WGA-SPA beads); conditions: c=1 μM test substance; 0.5 nM 3H-nociceptin/orphanin FQ; membranes of recombinant CHO-ORL1 cells
# T2 construct: expressed in transfected cells; host or cells: CHO (recombinant CHO-ORL1 cells), membranes
# T2 sequence (P41146 whole entry): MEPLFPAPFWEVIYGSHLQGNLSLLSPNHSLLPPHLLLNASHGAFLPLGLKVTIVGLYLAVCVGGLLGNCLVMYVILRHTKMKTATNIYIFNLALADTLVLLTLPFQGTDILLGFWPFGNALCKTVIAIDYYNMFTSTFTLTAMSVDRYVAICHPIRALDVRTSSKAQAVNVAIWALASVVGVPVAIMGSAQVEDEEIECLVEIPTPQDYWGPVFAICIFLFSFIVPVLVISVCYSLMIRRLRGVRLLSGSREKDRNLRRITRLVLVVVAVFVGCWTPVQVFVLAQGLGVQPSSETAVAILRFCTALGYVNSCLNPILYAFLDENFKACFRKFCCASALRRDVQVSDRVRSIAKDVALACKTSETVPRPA
# In short: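 Affinity given as nanomolar Ki or as % inhibition at c=1 μM. Membranes of CHO cells expressing recombinant ORL1 (20 μg protein) were incubated one hour at room temperature with 0.5 nM 3H-nociceptin/orphanin FQ in Hepes 50 mM, pH 7.4, plus MgCl2 and EDTA; bound ligand detected by SPA bead scintillation counting.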
compound,measurement,setting,value
"CN(CCN1CCC(c2ccccc2)(N(C)C)CC1)Cc1c[nH]c2ccc(Cl)cc12 [Example 182, 1-(2-(((5-chloro-1H-indol-3-yl)methyl)(methy)amino)ethyl)-N,N-dimethyl-4-phenylpiperidin-4-amine]",% Inhibition (μ) at 1 μM,[1],101%
same,% Inhibition (ORL1) at 1 μM,[2],95%
